The NIST ThermoML archive (doi:10.1021/acs.jced.6b00202)

COC(C)(C)C [2-methoxy-2-methylpropane]
Liquid, Brillouin light scattering
Settings	speed of sound [m/s]
303.11 K, 7000 kPa	1078.5
303.12 K, 10000 kPa	1093.4
303.13 K, 1000 kPa	1023.2
303.15 K, 2500 kPa	1035.3
303.15 K, 8500 kPa	1086.9
303.2 K, 4000 kPa	1045.4
303.2 K, 5500 kPa	1058.1
308.06 K, 2500 kPa	1018.4
308.11 K, 10000 kPa	1080
308.12 K, 4000 kPa	1025.3
308.13 K, 5500 kPa	1037.2
308.13 K, 8500 kPa	1064.6
308.23 K, 1000 kPa	1003.3
308.24 K, 7000 kPa	1052.5
313.09 K, 1000 kPa	975
313.1 K, 2500 kPa	990.3
313.13 K, 7000 kPa	1034.7
313.15 K, 4000 kPa	1007
313.17 K, 10000 kPa	1051.6
313.2 K, 5500 kPa	1018.3
313.24 K, 8500 kPa	1049
318.06 K, 8500 kPa	1020.1
318.07 K, 1000 kPa	959.3
318.18 K, 7000 kPa	1012.5
318.22 K, 4000 kPa	985.3
318.23 K, 2500 kPa	971.4
318.24 K, 5500 kPa	996.7
318.25 K, 10000 kPa	1040
323.07 K, 10000 kPa	1016.8
323.12 K, 8500 kPa	1006.1
323.14 K, 7000 kPa	987.9
323.15 K, 1000 kPa	932.5
323.18 K, 2500 kPa	947.7
323.21 K, 5500 kPa	982.2
323.25 K, 4000 kPa	964.9
328.06 K, 7000 kPa	971.9
328.08 K, 1000 kPa	917
328.11 K, 2500 kPa	926.2
328.13 K, 8500 kPa	984.6
328.14 K, 5500 kPa	963.3
328.16 K, 4000 kPa	942.5
328.19 K, 10000 kPa	991.7
333.08 K, 1000 kPa	893.5
333.08 K, 2500 kPa	904.6
333.12 K, 4000 kPa	920.6
333.18 K, 10000 kPa	978.4
333.2 K, 5500 kPa	941.5
333.21 K, 7000 kPa	949.1
333.22 K, 8500 kPa	967.6
338.09 K, 1000 kPa	867.8
338.11 K, 7000 kPa	931.3
338.11 K, 8500 kPa	941
338.16 K, 5500 kPa	922.2
338.17 K, 10000 kPa	954.4
338.22 K, 4000 kPa	898.7
338.23 K, 2500 kPa	884.4
343.15 K, 7000 kPa	911.8
343.18 K, 8500 kPa	926.4
343.19 K, 4000 kPa	883.2
343.19 K, 5500 kPa	892.8
343.2 K, 1000 kPa	845.4
343.22 K, 2500 kPa	868.6
343.24 K, 10000 kPa	941
348.1 K, 5500 kPa	874.9
348.12 K, 7000 kPa	890.7
348.16 K, 4000 kPa	858.5
348.16 K, 8500 kPa	907.4
348.17 K, 10000 kPa	915.3
348.22 K, 1000 kPa	829.7
348.22 K, 2500 kPa	844.7
353.05 K, 5500 kPa	858.5
353.1 K, 7000 kPa	868.9
353.11 K, 10000 kPa	903.3
353.2 K, 2500 kPa	825.4
353.22 K, 4000 kPa	841.4
353.23 K, 8500 kPa	889.4
353.25 K, 1000 kPa	800
358.08 K, 7000 kPa	852.1
358.09 K, 5500 kPa	835.6
358.14 K, 8500 kPa	866.9
358.15 K, 1000 kPa	779.2
358.18 K, 10000 kPa	883.2
358.19 K, 2500 kPa	802.1
358.19 K, 4000 kPa	816.3
363.06 K, 1000 kPa	761.1
363.09 K, 2500 kPa	775.4
363.09 K, 5500 kPa	811.7
363.14 K, 7000 kPa	833.6
363.18 K, 8500 kPa	844.2
363.23 K, 4000 kPa	796.3
363.24 K, 10000 kPa	863.5
368.06 K, 5500 kPa	796.6
368.08 K, 10000 kPa	844.9
368.13 K, 7000 kPa	813
368.15 K, 1000 kPa	734.3
368.16 K, 4000 kPa	777
368.21 K, 8500 kPa	831.5
368.25 K, 2500 kPa	754.9
373.07 K, 1000 kPa	713.9
373.07 K, 10000 kPa	828.1
373.11 K, 8500 kPa	811.5
373.12 K, 5500 kPa	770.2
373.16 K, 4000 kPa	753.8
373.17 K, 2500 kPa	733.6
373.24 K, 7000 kPa	791.5
378.06 K, 4000 kPa	732.9
378.07 K, 5500 kPa	751.9
378.07 K, 7000 kPa	770.5
378.13 K, 2500 kPa	711.8
378.13 K, 8500 kPa	791.5
378.22 K, 1000 kPa	691.3
378.25 K, 10000 kPa	804
383.07 K, 1000 kPa	666.2
383.08 K, 4000 kPa	713
383.12 K, 2500 kPa	690.6
383.13 K, 7000 kPa	753.8
383.15 K, 8500 kPa	769.5
383.18 K, 5500 kPa	731.2
383.21 K, 10000 kPa	789.5
388.09 K, 5500 kPa	711.4
388.16 K, 7000 kPa	730.1
388.2 K, 4000 kPa	690

Settings	speed of sound [m/s]
303.19 K, Liquid, Brillouin Light Scattering	1024.7
308.16 K, Liquid, Brillouin Light Scattering	988.6
313.08 K, Liquid, Brillouin Light Scattering	960.4
318.19 K, Liquid, Brillouin Light Scattering	942.7
323.07 K, Liquid, Brillouin Light Scattering	912.4
328.21 K, Liquid, Brillouin Light Scattering	904.7
333.13 K, Liquid, Brillouin Light Scattering	876.8
338.07 K, Liquid, Brillouin Light Scattering	855.1
343.12 K, Liquid, Brillouin Light Scattering	826.3
348.24 K, Liquid, Brillouin Light Scattering	797.5
353.11 K, Liquid, Brillouin Light Scattering	781.5
358.22 K, Liquid, Brillouin Light Scattering	748.6
363.16 K, Liquid, Brillouin Light Scattering	727.1
368.17 K, Liquid, Brillouin Light Scattering	707.1
373.05 K, Liquid, Brillouin Light Scattering	698.9
378.05 K, Liquid, Brillouin Light Scattering	668.3
378.1 K, Gas, Brillouin light scattering	171.6
383.08 K, Liquid, Brillouin Light Scattering	646.4
388.11 K, Liquid, Brillouin Light Scattering	627.5
388.2 K, Gas, Brillouin light scattering	170.9
